From patent US20240360178A1, “MACROCYCLIC IMMUNOMODULATORS” (Bristol-Myers Squibb Company, priority 2021, published 2024)
pIC50: −log10 of the molar value. Positions of bridges follow the written chain, without caps; N, C: chain ends. Non-standard residues stand in square brackets, D forms with d. Residues, ends and D or L forms follow the SMILES beside them. ξ: configuration not given here. Phe(4-CH2NH2) = NCc1ccc(C[C@H](N)C(=O)O)cc1; Bip = N[C@@H](Cc1ccc(-c2ccccc2)cc1)C(=O)O; Phe(3-CN) = N#Cc1cccc(C[C@H](N)C(=O)O)c1; Phe(3-OMe) = COc1cccc(C[C@H](N)C(=O)O)c1; Ala(cPent) = N[C@@H](CC1CCCC1)C(=O)O; NMeF = CN[C@@H](Cc1ccccc1)C(=O)O; 4Pal = N[C@@H](Cc1ccncc1)C(=O)O; ξR = N=C(N)NCCCC(N)C(=O)O; NMeA = CN[C@@H](C)C(=O)O; Nle = CCCC[C@H](N)C(=O)O; Orn = NCCC[C@H](N)C(=O)O; Dab = NCC[C@H](N)C(=O)O; dAze = O=C(O)[C@H]1CCN1; Sar = CNCC(=O)O

Target: T1, human PD-1 (Jurkat-PD-1 cells) / PE-labeled human PD-L1-Ig (Homo sapiens, UniProt Q15116)
T1 construct: expressed in transfected cells; host or cells: Jurkat cell line over-expressing human PD-1
T1 sequence (Q15116 25-288): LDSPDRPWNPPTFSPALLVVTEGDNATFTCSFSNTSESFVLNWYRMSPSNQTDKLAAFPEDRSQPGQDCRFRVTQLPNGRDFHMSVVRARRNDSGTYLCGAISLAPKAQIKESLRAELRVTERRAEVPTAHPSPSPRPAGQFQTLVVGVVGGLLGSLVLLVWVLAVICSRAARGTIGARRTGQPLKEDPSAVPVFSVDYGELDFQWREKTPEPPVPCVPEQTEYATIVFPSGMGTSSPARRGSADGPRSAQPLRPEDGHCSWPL
Assay: Jurkat-PD-1 Cell Binding High-Content Screening Assay (CBA); Jurkat hPD1-PDL1 assay
Conditions: Jurkat cell line over-expressing human PD-1; PE-labeled PD-L1-Ig 20 nM final; compound incubated 2 hours at 37° C.; read-out: Jurkat HPD1-PDL1 IC50
In short: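 Read-out is high-content imaging of PE fluorescence on PD-1-over-expressing Jurkat cells. Cells are first exposed to compound for 2 hours at 37° C in serum-containing DMEM, after which PE-labeled PD-L1-Ig is added at 20 nM final.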

| SMILES | pIC50 |
| --- | --- |
| CC(C)C[C@@H]1NC(=O)[C@H](CCCCN)NC(=O)[C@H](Cc2ccccc2)N(C)C(=O)[C@H](C)N(C)C(=O)[C@H](CCCNC(=N)N)NC(=O)[C@H](Cc2ccc(-c3ccccc3)cc2)NC(=O)[C@H](C(C)C)NC(=O)[C@H](Cc2c[nH]c3ccccc23)NC(=O)[C@H](CC(=O)O)NC(=O)[C@H](Cc2ccc(O)cc2)NC(=O)[C@H](CCC(N)=O)NC(=O)CSC[C@@H](C(=O)NCC(N)=O)NC(=O)[C@H](CO)NC(=O)[C@H](C(C)C)NC1=O [Example 1313] ({CH2CO}-QYDWV[Bip]R[NMeA][NMeF]KLVSCG-NH2; thioether N-14) | 6.62 |
| COc1cccc(C[C@@H]2NC(=O)[C@H](CC(=O)O)NC(=O)[C@H](Cc3cccc(C#N)c3)NC(=O)[C@H](Cc3ccncc3)NC(=O)CSC[C@@H](C(=O)N[C@@H](C)C(N)=O)NC(=O)[C@H](CO)NC(=O)[C@H](C(C)C)NC(=O)[C@H](CC(C)C)NC(=O)[C@H](CC(N)=O)NC(=O)CN(C)C(=O)[C@H](C)N(C)C(=O)[C@H](C(C)C)NC(=O)[C@H](Cc3ccc(-c4ccccc4)cc3)NC(=O)[C@H](CC(C)C)NC2=O)c1 [Example 1392] ({CH2CO}-[4Pal][Phe(3-CN)]D[Phe(3-OMe)]L[Bip]V[NMeA][Sar]NLVSCA-NH2; thioether N-14) | 7.30 |
| CC(C)C[C@@H]1NC(=O)[C@H](CCCN)NC(=O)[C@H](Cc2ccccc2)N(C)C(=O)[C@H](C)N(C)C(=O)[C@H](CCCNC(=N)N)NC(=O)[C@H](Cc2ccc(-c3ccccc3)cc2)NC(=O)[C@H](C(C)C)NC(=O)[C@H](Cc2c[nH]c3ccccc23)NC(=O)[C@H](CC(=O)O)NC(=O)[C@H](Cc2ccc(O)cc2)NC(=O)[C@H](Cc2ccccc2)NC(=O)CSC[C@@H](C(=O)NCC(N)=O)NC(=O)[C@H](CO)NC(=O)[C@H](C(C)C)NC1=O [Example 1278] ({CH2CO}-FYDWV[Bip]R[NMeA][NMeF][Orn]LVSCG-NH2; thioether N-14) | 6.51 |
| CC(C)C[C@@H]1NC(=O)C(CCCNC(=N)N)NC(=O)[C@H](Cc2ccccc2)N(C)C(=O)[C@H](CCCCN)NC(=O)[C@H](CCCNC(=N)N)NC(=O)[C@H](Cc2ccc(-c3ccccc3)cc2)NC(=O)[C@H](C(C)C)NC(=O)[C@H](Cc2c[nH]c3ccccc23)NC(=O)[C@H](CC(=O)O)NC(=O)[C@H](Cc2ccc(O)cc2)NC(=O)[C@H](Cc2ccccc2)NC(=O)CSC[C@@H](C(=O)NCC(N)=O)NC(=O)[C@H](CO)NC(=O)[C@H](C(C)C)NC1=O (stereo partly shown) [Example 1216] ({CH2CO}-FYDWV[Bip]RK[NMeF][ξR]LVSCG-NH2; thioether N-14) | 7.05 |
| CC(C)C[C@@H]1NC(=O)[C@H](CCCN)NC(=O)[C@H](Cc2ccccc2)N(C)C(=O)[C@H](C)N(C)C(=O)[C@H](CCCNC(=N)N)NC(=O)[C@H](Cc2ccc(-c3ccccc3)cc2)NC(=O)[C@H](C(C)C)NC(=O)[C@H](Cc2c[nH]c3ccccc23)NC(=O)[C@H](CC(=O)O)NC(=O)[C@H](Cc2ccc(O)cc2)NC(=O)[C@H](Cc2ccccc2)NC(=O)CSC[C@@H](C(=O)N[C@@H](CO)C(N)=O)NC(=O)[C@H]([C@@H](C)O)NC(=O)[C@H](C(C)C)NC1=O [Example 1357] ({CH2CO}-FYDWV[Bip]R[NMeA][NMeF][Orn]LVTCS-NH2; thioether N-14) | 6.68 |
| CC(C)C[C@@H]1NC(=O)[C@H](Cc2c[nH]c3ccccc23)NC(=O)[C@H](CC(=O)O)NC(=O)[C@H](Cc2ccc(O)cc2)NC(=O)[C@H](Cc2ccccc2)NC(=O)CSC[C@@H](C(=O)N[C@@H](C)C(N)=O)NC(=O)[C@H](CO)NC(=O)[C@H](C(C)C)NC(=O)[C@H](CC2CCCC2)NC(=O)[C@H](CC(N)=O)NC(=O)CN(C)C(=O)[C@H](C)N(C)C(=O)[C@H](C(C)C)NC(=O)[C@H](Cc2ccc(-c3ccccc3)cc2)NC1=O [Example 1102] ({CH2CO}-FYDWL[Bip]V[NMeA][Sar]N[Ala(cPent)]VSCA-NH2; thioether N-14) | 6.51 |
| CCCC[C@@H]1NC(=O)[C@H](CC(N)=O)NC(=O)CN(C)C(=O)[C@H](C)N(C)C(=O)[C@H](C(C)C)NC(=O)[C@H](Cc2ccc(-c3ccccc3)cc2)NC(=O)[C@H](CC(C)C)NC(=O)[C@H](Cc2c[nH]c3ccccc23)NC(=O)[C@H](CC(=O)O)NC(=O)[C@H](Cc2ccc(O)cc2)NC(=O)[C@H](Cc2ccccc2)NC(=O)CSC[C@@H](C(=O)NCC(N)=O)NC(=O)[C@H](CO)NC(=O)[C@H](C(C)C)NC1=O [Example 1073] ({CH2CO}-FYDWL[Bip]V[NMeA][Sar]N[Nle]VSCG-NH2; thioether N-14) | 6.72 |
| CC(C)C[C@@H]1NC(=O)[C@H](Cc2c[nH]c3ccccc23)NC(=O)[C@H](CC(=O)O)NC(=O)[C@H](Cc2ccc(O)cc2)NC(=O)[C@H](Cc2ccccc2)NC(=O)CSC[C@@H](C(=O)N[C@@H](C)C(N)=O)NC(=O)[C@H](CO)NC(=O)[C@H](C(C)C)NC(=O)[C@H](CC(C)C)NC(=O)[C@H](CC(N)=O)NC(=O)[C@H]2CCCN2C(=O)[C@H]2CCCN2C(=O)[C@H](C(C)C)NC(=O)[C@H](Cc2ccc(-c3ccccc3)cc2)NC1=O [Example 1007] ({CH2CO}-FYDWL[Bip]V[dP][dP]NLVSCA-NH2; thioether N-14) | 6.82 |
| CC(C)C[C@@H]1NC(=O)[C@H](Cc2c[nH]c3ccccc23)NC(=O)[C@H](CC(=O)O)NC(=O)[C@H](Cc2ccc(O)cc2)NC(=O)[C@H](Cc2ccccc2)NC(=O)CSC[C@@H](C(=O)N[C@@H](C)C(N)=O)NC(=O)[C@H](CO)NC(=O)[C@H](C(C)C)NC(=O)[C@H](CC(C)C)NC(=O)[C@H](CC(N)=O)NC(=O)[C@H]2CCCN2C(=O)[C@@H](CCCCN)NC(=O)[C@H](C(C)C)NC(=O)[C@H](Cc2ccc(-c3ccccc3)cc2)NC1=O [Example 1197] ({CH2CO}-FYDWL[Bip]V[dK][dP]NLVSCA-NH2; thioether N-14) | 6.38 |
| CC(C)C[C@@H]1NC(=O)[C@H](CCCNC(=N)N)NC(=O)[C@H](Cc2ccccc2)N(C)C(=O)[C@H](C)N(C)C(=O)[C@H](C(C)C)NC(=O)[C@H](Cc2ccc(-c3ccccc3)cc2)NC(=O)[C@H](C(C)C)NC(=O)[C@H](Cc2c[nH]c3ccccc23)NC(=O)[C@H](CC(=O)O)NC(=O)[C@H](Cc2ccc(O)cc2)NC(=O)[C@H](Cc2ccccc2)NC(=O)CSC[C@@H](C(=O)NCC(N)=O)NC(=O)[C@H](CO)NC(=O)[C@H](C(C)C)NC1=O [Example 1206] ({CH2CO}-FYDWV[Bip]V[NMeA][NMeF]RLVSCG-NH2; thioether N-14) | 6.35 |
| CC(C)C[C@@H]1NC(=O)[C@H](C)NC(=O)CN(C)C(=O)[C@H](C)N(C)C(=O)[C@H](CCC(=O)O)NC(=O)[C@H](Cc2ccc(-c3ccccc3)cc2)NC(=O)[C@H](CC(C)C)NC(=O)[C@H](Cc2c[nH]c3ccccc23)NC(=O)[C@H](CC(=O)O)NC(=O)[C@H](Cc2ccc(O)cc2)NC(=O)[C@H](Cc2ccccc2)NC(=O)CSC[C@@H](C(=O)N[C@@H](C)C(N)=O)NC(=O)[C@H](CO)NC(=O)[C@H](C(C)C)NC1=O [Example 1164] ({CH2CO}-FYDWL[Bip]E[NMeA][Sar]ALVSCA-NH2; thioether N-14) | 6.05 |
| CC(C)C[C@@H]1NC(=O)[C@H](CCCNC(=N)N)NC(=O)[C@H](Cc2ccccc2)N(C)C(=O)[C@H](C)N(C)C(=O)[C@H](CCCNC(=N)N)NC(=O)[C@H](Cc2ccc(-c3ccccc3)cc2)NC(=O)[C@H](C(C)C)NC(=O)[C@H](Cc2c[nH]c3ccccc23)NC(=O)[C@H](CC(=O)O)NC(=O)[C@H](Cc2ccc(O)cc2)NC(=O)[C@H](Cc2cnc[nH]2)NC(=O)CSC[C@@H](C(=O)N[C@@H](C)C(N)=O)NC(=O)[C@H]([C@@H](C)O)NC(=O)[C@H](C(C)C)NC1=O [Example 1324] ({CH2CO}-HYDWV[Bip]R[NMeA][NMeF]RLVTCA-NH2; thioether N-14) | 6.57 |
| CC(C)C[C@@H]1NC(=O)[C@H](Cc2c[nH]c3ccccc23)NC(=O)[C@H](CC(=O)O)NC(=O)[C@H](Cc2ccc(O)cc2)NC(=O)[C@H](Cc2ccccc2)NC(=O)CSC[C@@H](C(=O)N[C@@H](C)C(N)=O)NC(=O)[C@H]([C@@H](C)O)NC(=O)[C@H](C(C)C)NC(=O)[C@H](CC(C)C)NC(=O)[C@H](CCN)NC(=O)[C@H]2CCCN2C(=O)[C@H](CCN)NC(=O)[C@H](C(C)C)NC(=O)[C@H](Cc2ccc(-c3ccccc3)cc2)NC1=O [Example 1416] ({CH2CO}-FYDWL[Bip]V[Dab][dP][Dab]LVTCA-NH2; thioether N-14) | 6.62 |
| CC(C)C[C@@H]1NC(=O)[C@H](Cc2c[nH]c3ccccc23)NC(=O)[C@H](CC(=O)O)NC(=O)[C@H](Cc2ccc(O)cc2)NC(=O)[C@H](Cc2ccccc2)NC(=O)CSC[C@@H](C(=O)N[C@@H](C)C(N)=O)NC(=O)[C@H](CO)NC(=O)[C@H](C(C)C)NC(=O)[C@H](CC(C)C)NC(=O)[C@H](CC(N)=O)NC(=O)[C@H]2CCN2C(=O)[C@H](C)N(C)C(=O)[C@H](C(C)C)NC(=O)[C@H](Cc2ccc(-c3ccccc3)cc2)NC1=O [Example 1021] ({CH2CO}-FYDWL[Bip]V[NMeA][dAze]NLVSCA-NH2; thioether N-14) | 7.40 |
| CCCC[C@@H]1NC(=O)[C@H](C(C)C)NC(=O)[C@H](Cc2ccccc2)N(C)C(=O)[C@H](CC(=O)O)NC(=O)[C@H](CCCNC(=N)N)NC(=O)[C@H](Cc2ccc(-c3ccccc3)cc2)NC(=O)[C@H](C(C)C)NC(=O)[C@H](Cc2c[nH]c3ccccc23)NC(=O)[C@H](CC(=O)O)NC(=O)[C@H](Cc2ccc(O)cc2)NC(=O)[C@H](Cc2ccccc2)NC(=O)CSC[C@@H](C(=O)NCC(N)=O)NC(=O)[C@H](CO)NC(=O)[C@H](C(C)C)NC1=O [Example 1227] ({CH2CO}-FYDWV[Bip]RD[NMeF]V[Nle]VSCG-NH2; thioether N-14) | 6.19 |
| CC(C)C[C@@H]1NC(=O)[C@H](CCCNC(=N)N)NC(=O)[C@H](Cc2ccccc2)N(C)C(=O)[C@H](C)N(C)C(=O)[C@H](CCCNC(=N)N)NC(=O)[C@H](Cc2ccc(-c3ccccc3)cc2)NC(=O)[C@H](C(C)C)NC(=O)[C@H](Cc2c[nH]c3ccccc23)NC(=O)[C@H](CC(=O)O)NC(=O)[C@H](Cc2ccc(O)cc2)NC(=O)[C@H](Cc2ccc(CN)cc2)NC(=O)CSC[C@@H](C(=O)NCC(N)=O)NC(=O)[C@H](CO)NC(=O)[C@H](C(C)C)NC1=O [Example 1256] ({CH2CO}-[Phe(4-CH2NH2)]YDWV[Bip]R[NMeA][NMeF]RLVSCG-NH2; thioether N-14) | 6.47 |
